Test results from patent US9549967B2, “Regulation of sodium channels by PLUNC proteins” (The University of North Carolina at Chapel Hill, priority 2009, dated 2017).

Assays:
ENaC [1] = biological target: T1, ENaC (Homo sapiens, UniProt P37088+P51168+P51170); assay: Transepithelial voltage under thin film conditions in human bronchial epithelial cultures (microelectrode); type: cell-based
T1 construct: endogenous in cells; host or cells: primary human bronchial epithelial cultures
T1 sequence (P37088 1-669): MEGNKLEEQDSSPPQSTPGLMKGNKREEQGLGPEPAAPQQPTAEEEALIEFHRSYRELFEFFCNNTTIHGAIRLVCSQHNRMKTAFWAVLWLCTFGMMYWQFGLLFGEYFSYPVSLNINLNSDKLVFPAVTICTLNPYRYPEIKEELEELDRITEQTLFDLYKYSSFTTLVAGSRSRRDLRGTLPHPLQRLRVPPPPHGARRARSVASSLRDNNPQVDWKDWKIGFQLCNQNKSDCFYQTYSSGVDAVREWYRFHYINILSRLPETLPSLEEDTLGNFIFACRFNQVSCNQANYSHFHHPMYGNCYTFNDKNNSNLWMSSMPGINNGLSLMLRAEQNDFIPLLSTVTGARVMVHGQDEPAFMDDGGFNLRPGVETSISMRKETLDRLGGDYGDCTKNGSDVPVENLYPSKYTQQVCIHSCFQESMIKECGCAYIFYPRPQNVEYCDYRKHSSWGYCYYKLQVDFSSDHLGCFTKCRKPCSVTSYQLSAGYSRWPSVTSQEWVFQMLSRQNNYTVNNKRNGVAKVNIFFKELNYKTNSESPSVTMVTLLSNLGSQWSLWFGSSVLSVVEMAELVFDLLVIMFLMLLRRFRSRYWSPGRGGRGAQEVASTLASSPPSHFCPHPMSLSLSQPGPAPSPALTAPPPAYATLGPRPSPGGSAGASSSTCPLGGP
T1 sequence (P51168 1-640): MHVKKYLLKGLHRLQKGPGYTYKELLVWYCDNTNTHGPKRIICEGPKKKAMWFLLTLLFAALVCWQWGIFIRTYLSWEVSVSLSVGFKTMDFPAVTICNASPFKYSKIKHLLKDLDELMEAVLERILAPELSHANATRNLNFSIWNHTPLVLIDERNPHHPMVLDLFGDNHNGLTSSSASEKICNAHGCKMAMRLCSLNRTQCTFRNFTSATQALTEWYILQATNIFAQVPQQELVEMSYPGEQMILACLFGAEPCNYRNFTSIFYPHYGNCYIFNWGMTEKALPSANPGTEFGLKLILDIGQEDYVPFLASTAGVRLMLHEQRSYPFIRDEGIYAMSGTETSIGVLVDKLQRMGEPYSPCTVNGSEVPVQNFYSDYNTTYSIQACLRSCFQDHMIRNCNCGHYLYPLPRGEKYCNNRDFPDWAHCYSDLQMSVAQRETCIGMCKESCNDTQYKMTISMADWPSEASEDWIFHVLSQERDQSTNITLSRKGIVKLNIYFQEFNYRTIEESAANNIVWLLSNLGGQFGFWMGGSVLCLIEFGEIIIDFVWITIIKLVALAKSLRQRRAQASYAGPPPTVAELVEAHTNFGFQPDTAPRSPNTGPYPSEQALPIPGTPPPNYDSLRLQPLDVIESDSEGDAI
T1 sequence (P51170 1-649): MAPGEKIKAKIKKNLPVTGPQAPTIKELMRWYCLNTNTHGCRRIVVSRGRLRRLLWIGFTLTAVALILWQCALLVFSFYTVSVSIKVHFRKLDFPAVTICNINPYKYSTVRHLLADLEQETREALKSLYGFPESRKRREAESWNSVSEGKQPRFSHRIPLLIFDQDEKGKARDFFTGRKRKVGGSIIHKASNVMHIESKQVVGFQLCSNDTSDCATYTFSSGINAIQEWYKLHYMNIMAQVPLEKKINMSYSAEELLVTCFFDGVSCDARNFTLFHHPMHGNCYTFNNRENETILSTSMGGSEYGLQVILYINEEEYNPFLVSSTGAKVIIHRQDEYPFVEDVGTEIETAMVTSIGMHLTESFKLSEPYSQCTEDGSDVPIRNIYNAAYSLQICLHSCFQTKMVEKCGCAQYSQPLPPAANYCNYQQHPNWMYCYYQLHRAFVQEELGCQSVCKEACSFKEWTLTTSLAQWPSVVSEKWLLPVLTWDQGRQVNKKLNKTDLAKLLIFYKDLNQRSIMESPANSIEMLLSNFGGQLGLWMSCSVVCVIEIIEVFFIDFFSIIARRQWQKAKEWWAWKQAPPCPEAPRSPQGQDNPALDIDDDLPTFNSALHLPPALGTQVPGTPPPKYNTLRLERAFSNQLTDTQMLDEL
From the text: (§1) Tissue procurement and cell culture: Cells were harvested by enzymatic digestion from human bronchial tissue as previously described under a protocol approved by the UNC School of Medicine IRB (Tarran et al., J. Gen. Physiol. 127:591 (2006)). Human excess donor lungs and excised recipient lungs were obtained at the time of lung transplantation from portions of main stem or […] bronchi and cells were harvested by enzymatic digestion. All preparations were maintained at an air-liquid interface in a modified bronchial epithelial medium and used 2-5 weeks after seeding on 12 mm T-Clear inserts (Corning Costar) coated with human placental type VI collagen (Sigma). Phosphate buffered saline (PBS) was used for washing human bronchial epithelial culture mucosal surfaces.
(§2) Microelectrode studies. A single-barreled potential difference-sensing electrode was placed in the airway surface liquid by micromanipulator and used in conjunction with a macroelectrode in the serosal solution to measure transepithelial voltage using a voltmeter (World Precision Instruments). […] Transepithelial resistance was routinely measured using the EVOM system (WPI) as previously described (Tarran et al., J. Gen. Physiol. 127:591 (2006)).

ENaC [2] = biological target: T1, ENaC; assay: Transepithelial electrical resistance of human bronchial epithelial cultures (EVOM); type: cell-based; settings: washed cultures; 50 ng/ml SPLUNC1 for 30 min or amiloride; effects not additive
From the text: as §1, §2

trypsin = assay: Cell-free fluorogenic assay of BGAR-MCA cleavage by trypsin; type: biochemical; settings: 2 U/ml aprotinin
Procedure: (§3) For cell-free assays, reactions were carried out in 50 μl Ringer in a 96 well plate format with 100 μM BGAR-MCA. To measure endogenous protease activity in human bronchial epithelial cultures, 30 μl Ringer with 100 μM BGAR-MCA were placed directly onto the mucosal surfaces of human bronchial epithelial cultures grown on 12 mm T-clear inserts and the cultures were assayed in 12 well plates.

serine proteases = assay: Endogenous protease activity (BGAR-MCA cleavage) on mucosal surfaces of human bronchial epithelial cultures; type: cell-based
Procedure: as §3

αENaC = biological target: T2, αENaC (Homo sapiens, UniProt P37088); assay: Texas red-SPLUNC1 binding assay on JME cells expressing yfp-αENaC; settings: polarized JME cells
T2 construct: expressed in transfected cells; host or cells: JME nasal epithelial cells (passaged, no endogenous ENaC), lentiviral vector pQCXIN
T2 sequence (P37088 1-669): T1 sequence (P37088 1-669)
Procedure: JME cells were incubated with varying concentrations of Texas red-labeled SPLUNC1 for 30 min followed by a 5× wash with PBS. After this time images were acquired with a Nikon Ti-S inverted microscope and were quantified to obtain specific and non-specific binding using Image J. Data were then fitted with a Hill Plot to obtain the Kd.
JME nasal epithelial cells express functional ENaCs (Tong et al., Am. J. Physiol. Lung Cell. Mol. Physiol. 287:L928 (2004)). However, this attribute is lost after several passages. Thus, passaged JME cells that no longer expressed ENaC were stably infected with a lentivirus containing yfp-αENaC or an empty vector as a control and the presence or absence of αENaC was confirmed using an antibody that was constructed “in-house” that was directed against αENaC (FIG. 8).
Recombinant SPLUNC1 was labeled with Texas red according to the manufacturer's instructions (Pierce) and was freshly labeled on the day of each binding experiment. […] After this time yfp (514 nm excitation) and Texas red fluorescence (590 nm excitation) were imaged under a 60× water objective on a Nikon Ti-S inverted microscope equipped with an Orca CCD camera (Hamamatsu) switchable filter wheels (Ludl). Background fluorescence was subtracted from all images and the mean thresholded intensity was quantified to obtain specific and non-specific binding using Image J.

N=C(N)NC(=O)c1nc(Cl)c(N)nc1N [amiloride, reference compound]
reduction of the transepithelial voltage (ENaC [1]; n=12, FIG. 4 legend: 100 mM amiloride): 54%
increase of the transepithelial electrical resistance (ENaC [2]): ~33%

aprotinin [reference compound]
rate of inhibition of the transepithelial voltage (ENaC [1]; rSPLUNC1 vs aprotinin addition, effects not additive): identical rates
inhibition of trypsin activity (trypsin): ~100%
spontaneous BGAR-MCA cleavage on mucosal surfaces (serine proteases): inhibited

B1: Texas red-rSPLUNC1: recombinant SPLUNC1 labeled with Texas red (conjugate)
chain: QFGGLPVPLDQTLPLNVNPALPLSPTGLAGSLTNALSNGLLSGGLLGILENLPLLDILKPGGGTSGGLLGGLLGKVTSVIPGLNNIIDIKVTDPQLLELGLVQSPDGHRLYVTIPLGIKLQVNTPLVGASLLRLAVKLDITAEILAVRDKQERIHLVLGDCTHSPGSLQISLLDGLGPLPIQGLLDSLTGILNKVLPELVQGNVCPLVNEVLRGLDITLVHDIVNMLIHGLQFVIKV
modifications: left off: small tags and cut ends
Kd (αENaC; 30 min incubation, Hill fit): 0.055 µg/mL
specific (yfp-αENaC) binding vs non-specific (empty vector) binding (αENaC; binding isotherm): significantly greater and saturable
